Patent US5883287A, “Vinyl sulfide compounds and a process for their preparation” (Lumigen, Inc., priority 1997, dated 1999)

Tests used:
Type in all cases: physicochemical
[1] = Stability of dioxetane on silica (TLC versus NMR); settings: TLC on silica compared with 1H NMR
Description: (c) Synthesis of 4-ethylthio-4-(3-pivaloyloxyphenyl)spiro[1,2-dioxetane-3,2'-tricyclo[3.3.1.1^3,7 ]decane] (2). A small photooxygenation apparatus was charged with 60 mg (0.16 mmol) of the vinyl sulfide, 180 mg of polymer-bound Rose Bengal (U.S. Pat. No. 4,315,998), and 20 mL of CH2 Cl2 dried over MgSO4. The resulting mixture was then cooled to -78° C. with oxygen bubbling through it. After several minutes, the reaction solution was irradiated with a 1000 W sodium lamp for 25 min. […] The sensitizer was filtered off, the solvent evaporated at 0° C. and the material examined by ^1 H NMR.

[2] = First order decay of chemiluminescence (base-induced decay) of hydroxyphenyl alkylthio dioxetane in alkaline buffer with surfactant enhancers; settings: 0.2M 221 buffer pH 9.6, 0.88 mM Mg+2, ambient temperature
Description: Comparison of Rates of Base-Induced Decay of a Hydroxyphenyl Alkylthio Dioxetane. The first order decay of chemiluminescence of dioxetane 3 in 0.2M 221 buffer, pH 9.6 containing 0.88 mM Mg^+2 and the surfactant enhancers shown below was measured at ambient temperature. Surfactant A is CTAB, B is poly(vinylbenzyltributylphosphonium chloride), C is poly(vinylbenzyltributylphosphonium chloride)-co-poly(vinylbenzyltrioctylphosphonium chloride), D is 1-trioctylphosphoniummethyl-4-tributylphosphoniummethylbenzene dichloride.

[3] = First order decay of chemiluminescence (base-induced decay) of hydroxyphenyl alkoxy or aryloxy dioxetanes in alkaline buffer; settings: 37° C.; 0.2M 221 buffer, pH 9.6, 0.88 mM Mg+2, 1.0 mg/mL 1-trioctylphosphoniummethyl-4-tributylphosphoniummethylbenzene dichloride
Description: Comparison of Rates of Base-Induced Decay of Hydroxy-phenyl Alkoxy or Aryloxy Dioxetanes. The first order decay of chemiluminescence of dioxetanes 14-19 in 0.2M 2-methyl-2-amino-1-propanol (221) buffer, pH 9.6 containing 0.88 mM Mg^+2 and 1.0 mg/mL of 1-trioctylphosphoniummethyl-4-tributylphosphoniummethylbenzene dichloride was measured at 37° C. in a Turner Designs (Sunnyvale, Calif.) model TD-20e luminometer. The half-lives of decay of chemiluminescence (t1/2) of hydroxy-dioxetanes correlate with the times required to reach the maximum light intensity (Imax) in the alkaline phosphatase-triggered decomposition of the corresponding phosphate-dioxetanes under the same conditions. […] It is expected that, for example, the phosphate derivatives of dioxetanes 14-19 as well as others which can be produced by the process described herein will be useful in alkaline phosphatase-linkedassays known in the art.

Structure (SMILES) | t1/2 of decay of chemiluminescence [3] | further results
CCSC1(c2cccc(OC(=O)C(C)(C)C)c2)OOC12C1CC3CC(C1)CC2C3 (stereo not shown) [Dioxetane 2, 4-Ethylthio-4-(3-pivaloyloxyphenyl)spiro[1,2-dioxetane-3,2'-tricyclo-[3.3.1.1^3,7]decane]] | – | stability on silica [1]: less stable on silica
Oc1cccc(C2(Sc3ccc(F)cc3)OOC23C2CC4CC(C2)CC3C4)c1 (stereo not shown) [Dioxetane 3, 4-(p-Fluorophenylthio)-4-(3-hydroxyphenyl)spiro[1,2-dioxetane-3,2'-tricyclo[3.3.1.1^3,7]decane]] | – | t1/2 of decay of chemiluminescence ([2]; Surfactant A (CTAB) 0.41 g/L): 11.2 min; t1/2 of decay of chemiluminescence ([2]; Surfactant B (poly(vinylbenzyltributylphosphonium chloride)) 0.5 g/L): 4.2 min; t1/2 of decay of chemiluminescence ([2]; Surfactant C (poly(vinylbenzyltributylphosphonium chloride)-co-poly(vinylbenzyltrioctylphosphonium chloride)) 0.5 g/L): 2.9 min; t1/2 of decay of chemiluminescence ([2]; Surfactant D (1-trioctylphosphoniummethyl-4-tributylphosphoniummethylbenzene dichloride) 1.0 g/L): 2.0 min
Oc1cccc(C2(OCC(Cl)(Cl)Cl)OOC23C2CC4CC(C2)CC3C4)c1 (stereo not shown) [Dioxetane 15, 4-(3-Hydroxyphenyl)-4-(2,2,2-trichloroethoxy)spiro[1,2-dibxetane-3,2'-tricyclo[3.3.1.1^3,7]decane]] | 3.7 min | –
Oc1cccc(C2(OCC(Cl)Cl)OOC23C2CC4CC(C2)CC3C4)c1 (stereo not shown) [Dioxetane 16, 4-(2,2-Dichloroethoxy)-4-(3-hydroxyphenyl)spiro[1,2-dioxetane-3,2'-tricyclo-[3.3.1.1^3,7]decane]] | 4.1 min | –
Oc1cccc(C2(OCC(F)(F)C(F)(F)F)OOC23C2CC4CC(C2)CC3C4)c1 (stereo not shown) [Dioxetane 17, 4-(3-Hydroxyphenyl)-4-(2,2,3,3,3-pentafluoropropoxy)spiro[1,2-dioxetane-3,2'-tricyclo[3.3.1.1^3,7]decane]] | 3.4 min | –
Oc1cccc(C2(OCC(F)(F)C(F)(F)C(F)(F)F)OOC23C2CC4CC(C2)CC3C4)c1 (stereo not shown) [Dioxetane 18, 4-(2,2,3,3,4,4,4-Heptafluorobutoxy)-4-(3-hydroxyphenyl)spiro[1,2-dioxetane-3,2'-tricyclo[3.3.1.1^3,7]decane]] | 4.9 min | –
Oc1cccc(C2(Oc3c(F)cccc3F)OOC23C2CC4CC(C2)CC3C4)c1 (stereo not shown) [Dioxetane 19, 4-(2',6'-Difluorophenoxy)-4-(3-hydroxyphenyl)spiro[1,2-dioxetane-3,2'-tricyclo[3.3.1.1^3,7]decane]] | 1.76 min | –
